In ChEMBL document CHEMBL5331113 (J Med Chem, 2023):
Each block holds one compound with its values, some of them ahead of it. Activity calls are given as the source filed them. The rule behind the calls is not given here.

Tests used:
[1] = cells; details: Mus musculus, HEK-293T, 5 min, read-out: pEC50 (converted)
[2] = test system: HEK293T; experiment: Antagonist activity at mouse succinate receptor 1 N181.31E/K2697.32N mutant expressed in HEK293T cells co-transfected with Galphai-Rluc8/Ggamma8-GFP2/Gbeta3 assessed as inhibition of succinate induced G protein activation incubated for 5 mins by luminescence based BRET assay; assay type: cell-based
[3] = test system: HEK293T; experiment: Antagonist activity at mouse succinate receptor 1 N181.31E/K2697.32N/G84EL1W mutant expressed in HEK293T cells co-transfected with Galphai-Rluc8/Ggamma8-GFP2/Gbeta3 assessed as inhibition of succinate induced G protein activation incubated for 5 mins by luminescence based BRET assay; assay type: cell-based; details: filed as antagonist
[4] = molecular target: T1, Succinate receptor 1 (Homo sapiens) (UniProt Q9BXA5); details: Flp-In-T-REx-293, filed as agonist, time 30.0 min
T1 sequence (whole entry): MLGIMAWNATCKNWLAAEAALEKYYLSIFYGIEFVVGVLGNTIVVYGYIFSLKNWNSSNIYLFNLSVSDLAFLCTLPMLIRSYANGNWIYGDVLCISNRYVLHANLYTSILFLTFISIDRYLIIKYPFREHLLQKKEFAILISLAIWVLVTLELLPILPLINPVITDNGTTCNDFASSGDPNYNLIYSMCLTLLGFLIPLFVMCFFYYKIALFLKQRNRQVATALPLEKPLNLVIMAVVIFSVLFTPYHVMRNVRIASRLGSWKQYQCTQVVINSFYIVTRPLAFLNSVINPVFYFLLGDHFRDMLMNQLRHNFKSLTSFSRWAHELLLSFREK

[5] = Competitive binding affinity to humanized mouse succinate receptor 1 N181.31E/K2697.32N/G84EL1W mutant assessed as inhibition constant incubated for 5 mins in the presence of TUG-2384 by BRET assay
[6] = molecular target: T2, Succinate receptor 1 (Homo sapiens, UniProt Q9BXA5); experiment: Competitive binding affinity to N-terminal Nluc-tagged human succinate receptor 1 expressed in Flp-In-T-REx-293 cells assessed as inhibition constant incubated for 5 mins in the presence of TUG-2465 by BRET assay; assay type: cell-based
T2 sequence (Q9BXA5 whole entry): T1 sequence (whole entry)

- EC50 [1]: 52.5 µM
Compound: O=C(O)CCC(=O)O [SUCCINIC ACID]

Compound: CN1CCN(Cc2ccc(-c3cccc(C(=O)Nc4ccccc4CC(=O)O)c3)cc2)CC1
- Activity [2]: inactive
- Activity [3]: Active

- pEC50 [4]: Active
Compound: CC(C)(C)OC(=O)NCCCCCCOc1ccc(-c2cccc(C(=O)Nc3ccccc3CC(=O)O)c2)cc1

- pKi [5]: < 4.5
- Ki [6]: 7.94 µM
Compound: O=C(O)CCc1cccc(Oc2ccc(Oc3cccc4cnccc34)cc2C(F)(F)F)c1
